Results from ChEMBL document CHEMBL3272295, “Drugs derived from cannabinoids. 5. delta6a,10a-Tetrahydrocannabinol and heterocyclic analogs containing aromatic side chains” (J Med Chem, 1976).
The source made the active and inactive calls. The rule behind the calls is not given here.

Key:
[1] = Acute toxicity in po dosed mouse; format: organism-based; conditions: in vivo
[2] = system: Rattus norvegicus; experiment: Antihypertensive activity in spontaneously hypertensive rat model assessed as reduction in blood pressure at 10 mg/kg, po after 3 hrs; format: functional; design: scale not given: the % may be the effect or the level left
[3] = system: Rattus norvegicus; experiment: Antihypertensive activity in spontaneously hypertensive rat model assessed as reduction in blood pressure at 10 mg/kg, po after 24 hrs; format: functional; design: scale not given: the % may be the effect or the level left
[4] = system: Rattus norvegicus; experiment: Antihypertensive activity in spontaneously hypertensive rat model assessed as reduction in blood pressure at 30 mg/kg, po after 3 hrs; format: functional; design: scale not given: the % may be the effect or the level left
[5] = system: Rattus norvegicus; experiment: Antihypertensive activity in spontaneously hypertensive rat model assessed as reduction in blood pressure at 30 mg/kg, po after 24 hrs; format: functional; design: scale not given: the % may be the effect or the level left
[6] = system: Mus musculus; experiment: Analgesic activity in mouse assessed as inhibition of acetic acid-induced writhing at 40 mg/kg, po administered 30 mins prior to acetic acid challenge measured after 5 mins for 20 mins; format: functional
[7] = system: Mus musculus; experiment: Antianxiety activity in albino BALB/cJ mouse assessed as reduction in footshock-induced fighting behavior at 10 mg/kg, po after 30 to 90 mins; format: functional; design: scale not given: the % may be the effect or the level left
[8] = system: Rattus norvegicus; experiment: Antianxiety activity in Long-Evans rat assessed as reduction in motor activity at 5 mg/kg, po after 2 hrs relative to vehicle-treated control; format: functional; design: scale not given: the % may be the effect or the level left
[9] = system: Rhesus monkey; experiment: Antianxiety activity in rhesus monkey assessed as antiagressive behavior at 10 mg/kg, po measured every hour post dosing; format: functional, organism-based; design: dose 10 mg/kg; conditions: Macaca mulatta
[10] = system: Rattus norvegicus; experiment: Antipsychotic activity in rat assessed as reduction of methamphetamine-induced hyperactivity at 5 mg/kg, po administered prior to methamphetamine challenge relative to vehicle-treated control; format: functional; design: scale not given: the % may be the effect or the level left
[11] = system: Mus musculus; experiment: Increase in footshock-induced fighting behavior in albino BALB/cJ mouse at 10 mg/kg, po after 30 to 90 mins; format: functional
[12] = system: Rattus norvegicus; experiment: Antisecretory activity in Sprague-Dawley rat assessed as decrease in acid output at 50 mg/kg, po administered 30 mins prior to pylorus ligation measured after 4 hrs relative to control; format: functional; design: scale not given: the % may be the effect or the level left
[13] = system: Rattus norvegicus; experiment: Antisecretory activity in Sprague-Dawley rat assessed as decrease in pepsin concentration at 50 mg/kg, po administered 30 mins prior to pylorus ligation measured after 4 hrs relative to control; format: functional; design: scale not given: the % may be the effect or the level left
[14] = system: Rattus norvegicus; experiment: Antisecretory activity in Sprague-Dawley rat assessed as decrease in pepsin output at 50 mg/kg, po administered 30 mins prior to pylorus ligation measured after 4 hrs relative to control; format: functional; design: scale not given: the % may be the effect or the level left
[15] = organism: Rattus norvegicus; experiment: animal or person; format: functional; conditions: Charles River, route oral
Description: Antidiarrheal activity in Charles River rat assessed as inhibition of castor oil-induced diarrhea by measuring protected animals at 0.5 mg/kg, po administered 1 hr prior to castor oil challenge measured after 1 hr relative to vehicle-treated control

[16] = system: Rattus norvegicus; experiment: (§1) Antidiarrheal activity in Charles River rat assessed as inhibition of castor oil-induced diarrhea by measuring protected animals at 0.1 mg/kg, po administered 1 hr prior to castor oil challenge measured after 1 hr relative to vehicle-treated control; format: functional
[17] = system: Rattus norvegicus; experiment: Antidiarrheal activity in Charles River rat assessed as inhibition of castor oil-induced diarrhea by measuring protected animals at 0.05 mg/kg, po administered 1 hr prior to castor oil challenge measured after 1 hr relative to vehicle-treated control; format: functional
[18] = system: Rattus norvegicus; experiment: as §1, with “0.5” for “0.1”, “po administered for 2 days followed by 0.5 mg/kg, po on test day” for “po”; format: functional
[19] = system: Rattus norvegicus; experiment: as §1, with “0.5” for “0.1”, “po administered for 2 days followed by 1 mg/kg, po on test day” for “po”; format: functional
[20] = system: Rattus norvegicus; experiment: Antipsychotic activity in rat assessed as reduction of methamphetamine-induced hyperactivity at 0.5 mg/kg, po administered prior to methamphetamine challenge relative to vehicle-treated control; format: functional; design: scale not given: the % may be the effect or the level left
[21] = system: Rattus norvegicus; experiment: Antipsychotic activity in rat assessed as reduction of methamphetamine-induced hyperactivity at 2 mg/kg, po administered prior to methamphetamine challenge relative to vehicle-treated control; format: functional; design: scale not given: the % may be the effect or the level left
[22] = system: Mus musculus; experiment: Antidepressant activity in po dosed mouse assessed as potentiation of DOPA-induced effect administered 4 hrs prior to DOPA challenge; format: functional; conditions: read-out: MED
[23] = system: Mus musculus; experiment: Anticonvulsant activity in po dosed mouse assessed as dose required to protect 80% of animal measured after 1 to 4 hrs by audiogenic seizure test; format: functional
[24] = system: Rattus norvegicus; experiment: Antihypertensive activity in spontaneously hypertensive rat model assessed as reduction in blood pressure at 0.3 mg/kg, po after 3 hrs; format: functional; design: scale not given: the % may be the effect or the level left
[25] = system: Rattus norvegicus; experiment: Antihypertensive activity in spontaneously hypertensive rat model assessed as reduction in blood pressure at 0.3 mg/kg, po after 24 hrs; format: functional; design: scale not given: the % may be the effect or the level left
[26] = system: Felis catus; experiment: Hypnotic activity in cat assessed as increase in total sleep time at 2 mg/kg administered orally through diet measured for 12 hrs by EEG analysis; format: functional; conditions: route oral
[27] = system: Felis catus; experiment: Hypnotic activity in cat assessed as decrease in total sleep time at 0.5 mg/kg administered orally through diet measured for 12 hrs by EEG analysis; format: functional; conditions: route oral
[28] = system: Felis catus; experiment: Hypnotic activity in cat assessed as increase in non-REM sleep time at 2 mg/kg administered orally through diet measured for 12 hrs by EEG analysis; format: functional; conditions: route oral
[29] = system: Felis catus; experiment: Hypnotic activity in cat assessed as decrease in non-REM sleep time at 0.5 mg/kg administered orally through diet measured for 12 hrs by EEG analysis; format: functional; conditions: route oral
[30] = system: Rattus norvegicus; experiment: Antisecretory activity in Sprague-Dawley rat assessed as decrease in volume at 50 mg/kg, po administered 30 mins prior to pylorus ligation measured after 4 hrs relative to control; format: functional; design: scale not given: the % may be the effect or the level left
[31] = system: Rattus norvegicus; experiment: Antisecretory activity in Sprague-Dawley rat assessed as decrease in acidity at 50 mg/kg, po administered 30 mins prior to pylorus ligation measured after 4 hrs relative to control; format: functional; design: scale not given: the % may be the effect or the level left
[32] = system: Mus musculus; experiment: Analgesic activity in po dosed mouse assessed as inhibition of acetic acid-induced writhing administered 30 mins prior to acetic acid challenge measured after 5 mins for 20 mins; format: functional
[33] = system: Rattus norvegicus; experiment: Analgesic activity in po dosed Sprague-Dawley rat after 15 to 90 mins by tail flick test; format: functional
[34] = system: Mus musculus; experiment: Antianxiety activity in albino BALB/cJ mouse assessed as reduction in footshock-induced fighting behavior at 5 mg/kg, po after 30 to 90 mins; format: functional; design: scale not given: the % may be the effect or the level left
[35] = system: Mus musculus; experiment: Antianxiety activity in albino BALB/cJ mouse assessed as reduction in footshock-induced fighting behavior at 1 mg/kg, po after 30 to 90 mins; format: functional; design: scale not given: the % may be the effect or the level left
[36] = system: Rhesus monkey; experiment: Antianxiety activity in po dosed rhesus monkey assessed as antiagressive behavior measured every hour post dosing; format: functional; conditions: Macaca mulatta, read-out: MED
[37] = system: Canis familiaris; experiment: Antianxiety activity in po dosed dog assessed as ataxia administered as single dose measured up to 24 hrs; format: functional; conditions: Canis lupus familiaris, read-out: MED

CC1CCC2=C(C1)c1c(O)cc(C(C)CCCN(C)C)cc1OC2(C)C (centres undefined)
LD50 [1]: ≥ 1000 mg/kg
Activity [2]: 9%
Activity [3]: 13%
Activity [4]: 10%
Activity [5]: 6%
inhibition in vivo at 40 mg/kg [6]: 18%
Activity [7]: 38%
Activity [8]: 12%
Activity [9]: inactive
Activity [10]: 20%

CC1CCC2=C(C1)c1c(O)cc(C(C)CCCc3ccc(F)cc3)cc1OC2(C)C (centres undefined)
Activity [11]: 26%
Activity [12]: 39.6%
Activity [13]: 11.4%
Activity [14]: 43.7%
inhibition in vivo at 0.5 mg/kg [15]: 70%
inhibition in vivo at 0.1 mg/kg [16]: 50%
inhibition in vivo at 0.05 mg/kg [17]: 0%
inhibition in vivo at 0.5 mg/kg [18]: 0%
inhibition (INH) [19]: 0%
LD50 [1]: ≥ 1000 mg/kg
Activity [20]: 30%
Activity [21]: 70%
minimal effective dose [22]: 10 mg/kg
Activity [23]: 30 mg/kg
Activity [24]: 31%
Activity [25]: 12%
Time [26]: 126 min
Time [27]: -22 min
Time [28]: 94 min
Time [29]: -4 min
Activity [30]: 35.5%
Activity [31]: 7.8%
ED50 [32]: 8.3 mg/kg
ED50 [33]: 5.9 mg/kg
Activity [34]: 92%
Activity [35]: 60%
Activity [8]: 90%
minimal effective dose [36]: 0.1 mg/kg
minimal effective dose [37]: 0.5 mg/kg
